Two molecules from US20090030064A1, “Sugar-coated preparation” (Takeda Pharmaceutical Company Limited, priority 2005, published 2009) can be followed below.

This data set in a line: Reference Example 1: bulk powder left in air, residual ratio. Format: physicochemical. As to conditions: 40° C. and 75% RH in the air, 1 month. The protocol:
A bulk powder of Compound A and sodium ascorbate were respectively left to stand for 1 month at 40° C. and 75% RH in the air, and then residual ratios thereof were measured. As a result, the residual ratio of Compound A was 89.7% (W/W), and the residual ratio of sodium ascorbate was 99.0% (W/W). Quantification of Compound A was carried out by a HPLC method under the following conditions. Solvent: acetonitrile Measurement wavelength: 287 nm Column: CHIRALCEL OJ-R 4.6 mm×150 mm (manufactured by Daicel Chemical Industries, Ltd.) Mobile phase: mixed solution of acetonitrile/10 mM aqueous ammonium acetate solution (16:9) Oven temperature: around 25° C. Quantification of sodium ascorbate was carried out by an iodine titration technique (solvent: metaphosphoric acid solution (1→50), indicator: starch test solution).

`COc1cc2c(cc1OC)CN(c1c(C)c(C)c3c(c1C)[C@@H](c1ccc(C)cc1)C(C)(C)O3)C2` [Compound A, (R)-5,6-dimethoxy-2-[2,2,4,6,7-pentamethyl-3-(4-methylphenyl)-2,3-dihydro-1-benzofuran-5-yl]isoindoline]: the residual ratio is on record as 89.7 % (W/W). Consider `O=C1O[C@H]([C@@H](O)CO)C([O-])=C1O.[Na+]` [sodium ascorbate], for which the residual ratio is 99.0 % (W/W).
